Reference: article PMC3174134, “Lucanthone and Its Derivative Hycanthone Inhibit Apurinic Endonuclease-1 (APE1) by Direct Protein Binding” (PLoS ONE, 2011)
Read-outs that look alike come from different tables or passages of the source.

Assays:
APE1 [1] = target: T1, APE1 (Homo sapiens, UniProt P27695); experiment: APE1 expression and cleavage in U251 1-5 overexpressor cells pretreated with cycloheximide, Western blot; format: cell-based; conditions: for Cleavage of APE1 (25 kDa fragment): 10 µg/ml cycloheximide 4 h, then 25-100 µM drug 2 h
T1 sequence (P27695 whole entry, the tested form may be a part): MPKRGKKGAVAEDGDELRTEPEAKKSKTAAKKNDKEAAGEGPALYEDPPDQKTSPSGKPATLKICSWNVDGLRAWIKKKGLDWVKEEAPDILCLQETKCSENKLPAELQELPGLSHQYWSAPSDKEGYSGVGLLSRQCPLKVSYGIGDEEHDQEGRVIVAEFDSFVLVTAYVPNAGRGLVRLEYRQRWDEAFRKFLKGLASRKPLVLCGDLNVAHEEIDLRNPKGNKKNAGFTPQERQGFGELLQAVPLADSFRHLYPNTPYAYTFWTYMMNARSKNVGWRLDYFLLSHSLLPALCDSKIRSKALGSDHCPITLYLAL
Experimental: Total purified protein concentration was determined by the ratio of A280/A260. 250 ng of APE1 treated with lucanthone or hycanthone (0.05–100 µM) for 2 h at 37°C in final volume of 30 µl were mixed with an equal volume of gel loading buffer (0.001% bromophenol blue, 4% SDS, 10% 2-ME, 20% glycerol, and 125 mM Tris pH 6.8) and denatured at 95°C for 5 min. Total protein concentration in cell extracts was determined using the Bradford assay (BioRad, Hercules, CA) and 25 µg of total protein from soluble or insoluble cell fractions were mixed with an equal volume of gel loading buffer (0.001% bromophenol blue, 4% SDS, 10% 2-ME, 20% glycerol, and 125 mM Tris pH 6.8) and denatured at 95°C for 5 min. This mixture was separated by SDS-PAGE (4% stacking, 7.5% resolving gel) for 2–3 h at 40 mA on a BioRad MiniPROTEAN II Electrophoresis Cell. To detect proteins, proteins were transferred onto a trans-Blot nitrocellulose membrane (0.45 µm; BioRad) overnight at 4°C at 15 mA in standard Tris-Glycine buffer containing 20% ethanol. Membranes were probed using polyclonal anti-APE1 or polyclonal anti-©-tubulin at 1/1,000 dilution in TTBS (0.1% Tween 20 in TBS (pH 7.5)) with secondary, anti-rabbit HRP-conjugated antibody used at 1/30,000 dilution to detect APE1 and ©-tubulin protein control. Chemi-luminescence was developed using an ECL kit according to the manufacturer's instructions and detected by exposing the blot to HyperfilmECL for 30 s–3 min. (GE Healthcare Biosciences, Piscataway, NJ).
Western blotting was carried out by 7.5% SDS-PAGE of cell extracts (20 µg total protein per lane) either from APE1 overexpresser clone 5 pretreated with 2.5–200 µM concentration of lucanthone/CRT0044876 or recombinant APE1 for 2 h at 37°C in presence of protease inhibitor cocktail (2 tablets (Roche, # 11836153001) containing mixture of several protease inhibitors with broad inhibitory specificity for serine, cysteine and metalloproteases in all systems, dissolved in 20 ml of APE1 buffer). […]

APE1 [2] = target: T1, APE1; experiment: Direct binding by surface plasmon resonance (BIACORE 2000), APE1 immobilized on CM5 chip; design: the full length APE1 protein was successfully expressed and purified; made in house; host or cells: E. coli BL21/DE3; conditions: for kd: full length APE1; for kon: pH 7.4, read-out: ka
Experimental: APE1 (and its hydrophobic mutants) and lucanthone/hycanthone reaction stoichiometry was studied using surface plasmon resonance on a BIACORE 2000 apparatus (Biacore, GE Healthcare, Sweden) at the protein core facility in SUNYSB, to determine the affinity of the two drugs for APE1 (or NΔ40 APE1). APE1 and its mutants (10 µg) (RUmax values were 9000 RU units after immobilization) were immobilized on a CM5 chip by amine coupling (as per the manufacturer's instructions) and binding experiments were performed at 20°C in 10 mM HBS-EP buffer, pH 7.4. Lucanthone (or hycanthone) (20–700 µM) was injected as analyte over the sensor chip in HBS-EP buffer at 10 µl/min. The regeneration was achieved by 10 mM glycine-HCl, pH 3.0 between each analyte (drug) concentration.

APE1 [3] = target: T1, APE1; experiment: Far UV circular dichroism of APE1 with drug (CDSSTR/DICHROWEB); design: the full length APE1 protein was successfully expressed and purified; made in house; host or cells: E. coli BL21/DE3; Helix 1 / Helix 2 / Strand 1 / Strand 2 / Turns / Unordered: unit not given here; conditions: APE1 plus drug (1 mg/ml, 50 µl), 37°C, 60 min
Experimental: APE1 and its mutant proteins (10 mg/ml), 50 µl (500 µg) (14 µM) in APE1 buffer (50 mM HEPES, pH 7.4, 150 mM KCl, 5 mM MgCl2), were mixed with lucanthone/hycanthone (1 mg/ml), 50 µl (50 µg), 140 µM and incubated at 37°C for 60 min and far UV-CD spectra were recorded at NSLS U11 beam line at BNL. Lucanthone and hycanthone were also scanned as drug controls. The scanning parameters used were a 0.001 cm path length quartz cell, scanning wavelengths from 260 to 170 nm, bandwidth of 0.5 nm, digital integration time of 1 s, time constant of 200 ms, step size of 1 nm, and sensitivity of 200 µV. The data were corrected with blank subtraction from APE1 buffer alone. The secondary structure for APE1 with or without lucanthone or hycanthone was analyzed using CDSSTR program DICHROWEB [38].

APE1 [4] = target: T1, APE1; experiment: MALDI-TOF analysis of APE1 degradation; design: the full length APE1 protein was successfully expressed and purified; made in house; host or cells: E. coli BL21/DE3; conditions: 100 µM drug; for APE1 protein fragments by MALDI-TOF / Full length 35.5 kDa APE1 peak by MALDI-TOF: 37°C; for APE1 protein fragments by MALDI-TOF: 2 or 24 h; for Full length 35.5 kDa APE1 peak by MALDI-TOF: 24 h
Experimental: 100 nM of APE1 protein was treated with 100 µM of lucanthone, hycanthone or CRT at 37°C for 2 h and 24 h and analyzed on sinipinic acid matrix on a Voyager-DE STR (Applied Biosystems) MALDI-TOF instrument at the Proteomics facility at SUNYSB in a linear mode.

| SMILES | Cleavage of APE1 (25 kDa fragment) (APE1 [1]) | APE1:drug stoichiometry (APE1 [2]) | RUmax (APE1 [2]) | kd (APE1 [2]) | kon (APE1 [2]) | Av. helix length per segment (APE1 [3]) | Av. strand length per segment (APE1 [3]) | Helix 1 (APE1 [3]) | Helix 2 (APE1 [3]) | Strand 1 (APE1 [3]) | Strand 2 (APE1 [3]) | Turns (APE1 [3]) | Unordered (APE1 [3]) | APE1 protein fragments by MALDI-TOF (APE1 [4]) | Full length 35.5 kDa APE1 peak by MALDI-TOF (APE1 [4]) | further results |
| --- | --- | --- | --- | --- | --- | --- | --- | --- | --- | --- | --- | --- | --- | --- | --- | --- |
| CCN(CC)CCNc1ccc(CO)c2sc3ccccc3c(=O)c12 [hycanthone] | induce cleavage of APE1 | ~1 | 90 RU | 8.9e-07 s⁻¹ | 90 M⁻¹ s⁻¹ | 4.020 | 5.799 | 0.00 | 0.069 | 0.267 | 0.141 | 0.124 | 0.399 | cleavage of APE1 as evidenced mainly by 10, 11 and 17 kDa peaks | almost completely degraded | Kd (APE1 [2]; BIACORE, 20°C, HBS-EP pH 7.4, read-out: KD (affinity constant)): 10 nM; RUligand (APE1 [2]; Conc 22 µM): 24 RU; RUligand (APE1 [2]; Conc 44 µM): 45 RU; RUligand (APE1 [2]; Conc 88 µM): 78 RU; RUligand (APE1 [2]; Conc 176 µM): 79 RU; RUligand (APE1 [2]; Conc 352 µM): 90 RU; RUligand (APE1 [2]; Conc 704 µM): 118 RU; Ka, fold higher than lucanthone (APE1 [2]; hycanthone vs lucanthone): about 8 fold; kd of full length APE1, fold lower than for lucanthone (APE1 [2]; hycanthone vs lucanthone): ~100 fold |
| CCN(CC)CCNc1ccc(C)c2sc3ccccc3c(=O)c12 [lucanthone, 1-[2-diethylaminoethylamino]-4-methylthioxanthen-9-one] | induce cleavage of APE1 | may have been lower | 91 RU | 7.76e-05 s⁻¹ | 878 M⁻¹ s⁻¹ | 4.053 | 5.762 | 0.00 | 0.071 | 0.262 | 0.140 | 0.125 | 0.403 | steady degradation of APE1 into smaller fragments | almost completely degraded | De novo APE1 synthesis (APE1 [1]; 10 µg/ml cycloheximide 4 h pretreatment): not affected significantly; Kd (APE1 [2]): 89 nM; RUligand (APE1 [2]; Conc 20 µM): −82 RU; RUligand (APE1 [2]; Conc 40 µM): −26 RU; RUligand (APE1 [2]; Conc 80 µM): 2.5 RU; RUligand (APE1 [2]; Conc 160 µM): 77 RU; RUligand (APE1 [2]; Conc 320 µM): 94 RU; RUligand (APE1 [2]; Conc 640 µM): 62 RU; Time at which APE1 degradation is seen by MALDI (APE1 [4]): ≤ 2 h |
